Assay results from article PMC4975316 (EJIFCC, 2011).

Target: T1, β2GPI (Homo sapiens, UniProt P02749)
T1 sequence (P02749 20-345): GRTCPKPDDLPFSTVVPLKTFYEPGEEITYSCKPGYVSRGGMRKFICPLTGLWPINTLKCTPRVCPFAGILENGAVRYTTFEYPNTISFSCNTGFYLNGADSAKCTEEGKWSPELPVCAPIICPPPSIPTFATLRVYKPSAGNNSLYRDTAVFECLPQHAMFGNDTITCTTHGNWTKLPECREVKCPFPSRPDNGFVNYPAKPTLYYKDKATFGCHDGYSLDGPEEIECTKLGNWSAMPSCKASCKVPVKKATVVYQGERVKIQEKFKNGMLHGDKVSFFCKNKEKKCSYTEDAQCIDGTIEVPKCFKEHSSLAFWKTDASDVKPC
Assay: Surface plasmon resonance
Type: binding
Conditions: inferred from extremely fast dissociation; 0.005% PBST pH 7.4, 25°C

## KVWTIPRGGGS
  Affinity towards β2GPI indicated by dissociation (SPR): low affinity towards β2GPI
